Measurements from patent US9546179B2, “Heterocycle amido alkyloxy substituted quinazoline derivative and use thereof” (priority 2011, dated 2017).

Experiments:
[1] = target: T1, receptor tyrosine kinase EGFR (Homo sapiens, UniProt P00533); assay: Inhibitory effect on receptor tyrosine kinase EGFR (ELISA, Poly(Glu, Tyr)4:1, PY99 antibody); type: biochemical; settings: ATP 4 μM, 1 hour at 37° C.
T1 construct: purchased Shanghai 3bio Technology Co., Ltd. Lot No. 4018780925
Description: Poly(Glu, Tyr)4:1 was diluted into 100 μg/ml by PBS without potassium. Enzyme label plate was coated with 37 μl/well at 37° C. overnight,
The liquid in the wells was removed. The plate was rinsed by T-PBS for 5 minutes, and dried at 37° C. after repeated 3 times.
The testing sample was diluted to the concentration concerned by reaction buffer solution, and added into the wells of the coated enzyme label plate. The concentration diluted should realize 1.0000 μg/ml, 0.1250 μg/ml, 0.0156 μg/ml, 0.00195 μg/ml and 0.00024 μg/ml in the 100 μl reaction.
Adding in ATP solution (4 μM of final concentration) diluted by reaction buffer solution,
Finally, the tyrosine kinase diluted by reaction buffer solution was added, and forming the reaction with 100 μl total volume.
Meanwhile, negative control wells and enzyme-free control wells were prepared. The reaction was kept in the dark wet box for 1 hour at 37° C. The plate was rinsed by T-PBS for three times after the reaction ended, and blocked by 1% BSA […] for 30 min, and then, PY99 antibody (1:1000 diluted by 0.05% PBST with 1% BSA) was added in 100 μl/well. After incubated at 37° C. for 30 minutes, the plate was rinsed by T-PBS for three times, and the goat anti-mouse IgG marked with HRP (1 mg/ml 1:1000 diluted by 0.05% PBST with 1% BSA) was then added in 100 μl/well. After incubated at 37° C. for 30 minutes, the plate was rinsed by T-PBS for three times.
Colorimetric solution OPD was added in 100 μl/well for 20 minutes' reaction in the dark side at the room temperature. Colorimetric substrate solution OPD was the solution of 0.1 mol/L citric acid-disodium hydrogen phosphate buffer (pH 5.0) with 20 mmol/L OPD and 12 mmol/L H2O2 (freshly prepared when using).
50 μl of 2M H2SO4 (2 mol/L sulfuric acid containing 0.1 mol/L sodium sulfate) was added in to terminate the reaction, and the A492 value was read with adjustable wavelength micro late enzyme-labeling instrument VERSAmax.
The inhibition rate of samples is calculated by the following formula: […]

[2] = test system: Human lung cancer cells (A549); assay: Anticancer effect in vitro on A549 cells (MTT, GI50); type: cell-based; settings: A549, 72 hours
Description: The inhibitory effect on the cancer cells of the compounds prepared in Example 1-Example 13, Example 20, Example 48, Example 49 and Example 57 was determined in vitro using cancer cells. The results are shown in table 2, and the specific detection methods are as follows:
Human lung cancer cells were (A549, purchased from Shanghai FuMeng Gene Bio-technology Co., Ltd.) cultured in DMEM containing 2 m M/L-glutamine and 10% FBS, and inoculated in 96-well plate, 200 μL/well and 2000 cells per well; the plate was preincubated for 24 hours under the condition of 5% CO2 and 100% relative humidity at 37° C., allowing for cell adherence.
When the cells adhered, the supernatant was removed, and 200 μL drug-containing culture medium was added with different concentration of compounds into each well (in concentration of 20 μg/ml, 12.5 µg/ml, 6.25 μg/ml, […], 1.5625 μg/ml and 0.78125 μg/ml), 3 multiple wells were set up for each drug concentration as well as blank control (cell culture medium without cells), and drug-free control (with no drugs, filled with complete medium in equal amount only), cultured for 72 hours under the condition of 5% CO2 incubator at 37° C. (100% relative humidity).
After the culture ended, the supernatant was carefully removed, and adding 200 μl DMEM culture medium containing 3% FBS with 500 μg/ml MTT into each well, and culturing for 4 hours under the condition of 5% CO2 incubator at 37° C. (100% relative humidity). After the supernatant was discarded, 150 μL DMSO was added in each well for solving. the GI50 value was measured by detecting the absorbance in the 570 nm wavelength.

T1 sequence (P00533 25-1210): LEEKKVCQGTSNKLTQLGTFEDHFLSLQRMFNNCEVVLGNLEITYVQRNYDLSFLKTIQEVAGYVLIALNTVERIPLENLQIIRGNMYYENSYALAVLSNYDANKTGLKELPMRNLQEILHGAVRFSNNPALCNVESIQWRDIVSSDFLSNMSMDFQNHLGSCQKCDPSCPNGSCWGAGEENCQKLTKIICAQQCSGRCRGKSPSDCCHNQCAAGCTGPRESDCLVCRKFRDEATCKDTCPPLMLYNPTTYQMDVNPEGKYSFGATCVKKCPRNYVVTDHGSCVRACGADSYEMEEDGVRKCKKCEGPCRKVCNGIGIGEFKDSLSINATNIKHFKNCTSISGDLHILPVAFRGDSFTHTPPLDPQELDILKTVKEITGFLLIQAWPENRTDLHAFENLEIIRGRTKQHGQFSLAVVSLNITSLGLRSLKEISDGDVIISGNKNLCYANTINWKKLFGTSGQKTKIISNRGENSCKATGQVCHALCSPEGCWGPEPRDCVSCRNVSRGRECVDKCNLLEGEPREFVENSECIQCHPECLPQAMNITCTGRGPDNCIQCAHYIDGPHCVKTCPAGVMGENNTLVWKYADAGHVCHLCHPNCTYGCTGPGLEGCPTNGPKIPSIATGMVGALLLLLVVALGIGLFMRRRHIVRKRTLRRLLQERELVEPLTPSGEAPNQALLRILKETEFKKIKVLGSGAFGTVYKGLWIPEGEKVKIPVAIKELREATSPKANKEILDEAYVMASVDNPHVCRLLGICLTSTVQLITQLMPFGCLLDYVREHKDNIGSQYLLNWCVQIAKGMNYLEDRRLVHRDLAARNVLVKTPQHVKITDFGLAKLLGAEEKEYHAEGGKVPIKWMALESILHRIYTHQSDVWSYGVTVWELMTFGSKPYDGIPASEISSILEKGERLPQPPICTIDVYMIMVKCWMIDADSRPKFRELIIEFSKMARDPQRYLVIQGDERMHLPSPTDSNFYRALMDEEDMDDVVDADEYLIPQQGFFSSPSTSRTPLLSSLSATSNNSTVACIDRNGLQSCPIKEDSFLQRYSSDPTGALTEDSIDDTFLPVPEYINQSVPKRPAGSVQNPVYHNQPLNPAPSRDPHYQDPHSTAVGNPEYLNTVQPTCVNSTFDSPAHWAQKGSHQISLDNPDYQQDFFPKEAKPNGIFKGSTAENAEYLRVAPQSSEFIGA

Compound | IC50 [1] [µM] | GI50 [2] [µM]
COc1cc2ncnc(Nc3cc(Cl)ccc3F)c2cc1OCCCN1CC[C@H]2OCC[C@H]21 (relative stereo) [Example 20, 4-(5′-chloro-2′-fluorophenylamino)-6-[3-(cis-hexahydrofuro[3,2-b]pyrrole-4-yl)-propoxy]-7-methoxyquinazoline] | 0.01 to 0.1 | 59.5
COc1cc2ncnc(Nc3ccc(F)c(Cl)c3)c2cc1OCCCN1CC2(COC2)C1 [Example 1, 4-(3′-chloro-4′-fluorophenylamino)-6-[3-(2-oxa-6-azaspiro[3.3]heptane-6-yl)-propoxy]-7-methoxyquinazoline] | 0.01 to 0.1 | 39.7
COc1cc2ncnc(Nc3ccc(F)c(Cl)c3)c2cc1OCCN1CCC2(COC2)C1 [Example 3, 4-(3′-chloro-4′-fluorophenylamino)-6-[2-(2-oxa-6-azaspiro[3.4]octane-6-yl)-oxethyl]-7-methoxyquinazoline] | 0.1 to 1 | 10.2
COc1cc2ncnc(Nc3ccc(F)c(Cl)c3)c2cc1OCCCN1CC2(CCOCC2)C1 [Example 4, 4-(3′-chloro-4′-fluorophenylamino)-6-[3-(7-oxa-2-azaspiro[3.5]nonane-2-yl)-propoxy]-7-methoxyquinazoline] | 0.01 to 0.1 | 8.5
COc1cc2ncnc(Nc3ccc(F)c(Cl)c3)c2cc1OCCCN1CCC2(CC1)COC2 [Example 5, 4-(3′-chloro-4′-fluorophenylamino)-6-[3-(2-oxa-7-azaspiro[3.5]nonane-7-yl)-propoxy]-7-methoxyquinazoline] | 0.01 to 0.1 | 8.6
COc1cc2ncnc(Nc3ccc(F)c(Cl)c3)c2cc1OCCCN1CCC2(CCNC2=O)C1 (centres unmarked) [Example 80, 4-(3′-chloro-4′-fluorophenylamino)-6-[3-(2,7-diazaspiro[4.4]-nonane-1-ketone-7-yl)-propoxy]-7-methoxyquinazoline] | 0.0001 to 0.01 | 
COc1cc2ncnc(Nc3ccc(F)c(Cl)c3)c2cc1OCCCN1CCC2(CCN(C)C2=O)C1 (centres unmarked) [Example 81, 4-(3′-chloro-4′-fluorophenylamino)-6-[3-(2-methyl-2,7-diazaspiro[4.4]-nonane-1-ketone-7-yl)-propoxy]-7-methoxyquinazoline] | 0.01 to 0.1 | 
COc1cc2ncnc(Nc3ccc(F)c(Cl)c3)c2cc1OCCCN1CCC2(CCNC2=O)CC1 [Example 82, 4-(3′-chloro-4′-fluorophenylamino)-6-[3-(2,8-diazaspiro[4.5]decane-1-ketone-8-yl)-propoxy]-7-methoxyquinazoline] | 0.01 to 0.1 | 
COc1cc2ncnc(Nc3ccc(F)c(Cl)c3)c2cc1OCCCN1CCC2(CC1)CC(=O)N(C)C2 [Example 83, 4-(3′-chloro-4′-fluorophenylamino)-6-[3-(2-methyl-2,8-diazaspiro[4.5]decane-3-ketone-8-yl)-propoxy]-7-methoxyquinazoline] | 0.0001 to 0.01 | 
COc1cc2ncnc(Nc3ccc(F)c(Cl)c3)c2cc1OCCCN1CCC2(CCC(=O)N2)CC1 [Example 84, 4-(3′-chloro-4′-fluorophenylamino)-6-[3-(1,8-diazaspiro[4.5]decane-2-ketone-8-yl)-propoxy]-7-methoxyquinazoline] | 0.01 to 0.1 | 
COc1cc2ncnc(Nc3ccc(F)c(Cl)c3)c2cc1OCCCN1CCC2(CC1)CCN(C)C2=O [Example 85] | 0.01 to 0.1 | 
COc1cc2ncnc(Nc3ccc(F)c(Cl)c3)c2cc1OCCCN1CC2(CNC(=O)C2)C1 [Example 86, 4-(3′-chloro-4′-fluorophenylamino)-6-[3-(2,6-diazaspiro[3.4]octane-7-ketone-2-yl)-propoxy]-7-methoxyquinazoline] | 0.01 to 0.1 | 

More lines, now with the values ahead:

IC50 [1] [µM] | GI50 [2] [µM] | Compound
0.01 to 0.1 |  | COc1cc2ncnc(Nc3ccc(F)c(Cl)c3)c2cc1OCCCN1CCC2(CC1)CNC(=O)O2 [Example 87, 4-(3′-chloro-4′-fluorophenylamino)-6-[3-(1-oxa-3,8-diazaspiro[4.5]decane-2-ketone-8-yl)-propoxy]-7-methoxyquinazoline]
> 1 |  | COc1cc2ncnc(Nc3ccc(F)c(Cl)c3)c2cc1OCCCN1C[C@@H]2CN(C(=O)OC(C)(C)C)C[C@@H]2C1 [Example 88, 4-(3′-chloro-4′-fluorophenylamino)-6-[3-(5-tertbutyloxycarbonyl-hexahydropyrrolo[3,4-c]pyrrole-2-yl)-propoxy]-7-methoxyquinazoline]
0.01 to 0.1 |  | COc1cc2ncnc(Nc3ccc(F)c(Cl)c3)c2cc1OCCCN1CCC2(C1)CN(C)C(=O)O2 (centres unmarked) [Example 89, 4-(3′-chloro-4′-fluorophenylamino)-6-[3-[3-methyl-1-oxa-3,7-diazaspiro[4.4]nonane-2-ketone-7-yl)-propoxy]-7-methoxyquinazoline]
0.0001 to 0.01 |  | COc1cc2ncnc(Nc3ccc(F)c(Cl)c3)c2cc1OCCCN1CC2(CNC(=O)O2)C1 [Example 90, 4-(3′-chloro-4′-fluorophenylamino)-6-[3-(5-oxa-2,7-diazaspiro[3.4]octane-6-ketone-2-yl)-propoxy]-7-methoxyquinazoline]
0.01 to 0.1 |  | COc1cc2ncnc(Nc3ccc(F)c(Cl)c3)c2cc1OCCCN1CC2(C1)CN(C)C(=O)O2 [Example 91, 4-(3′-chloro-4′-fluorophenylamino)-6-[3-(7-methyl-5-oxa-2,7-diazaspiro[3.4]octane-6-ketone-2-yl)-propoxy]-7-methoxyquinazoline]
0.01 to 0.1 |  | COc1cc2ncnc(Nc3ccc(F)c(Cl)c3)c2cc1OCCCN1CCC2(CCN(C(C)=O)C2)C1 (centres unmarked) [Example 92, 4-(3′-chloro-4′-fluorophenylamino)-6-[3-(7-acetyl-2,7-diazaspiro[4.4]-nonane-2-yl)-propoxy]-7-methoxyquinazoline]
0.1 to 1 |  | COc1cc2ncnc(Nc3ccc(F)c(Cl)c3)c2cc1OCCCN1CC2CCC(C1)O2 [Example 93, 4-(3′-chloro-4′-fluorophenylamino)-6-[3-(8-oxa-3-aza-azabicyclo[3.2.1]octane-3-yl)-propoxy]-7-methoxyquinazoline]
0.01 to 0.1 |  | COc1cc2ncnc(Nc3ccc(F)c(Cl)c3)c2cc1OCCCN1CCC2(CC1)CNC(=O)C2 [Example 94, 4-(3′-chloro-4′-fluorophenylamino)-6-[3-(2,8-diazaspiro[4.5]decane-3-ketone-8-yl)-propoxy]-7-methoxyquinazoline]
0.01 to 0.1 |  | [2H]C([2H])([2H])Oc1cc2ncnc(Nc3ccc(F)c(Cl)c3)c2cc1OCCCN1CCC2(CC1)CNC(=O)O2 [Example 95, 4-(3′-chloro-4′-fluorophenylamino)-6-[3-(1-oxa-3,8-diazaspiro[4.5]decane-2-ketone-8-yl)-propoxy]-7-deuterated methoxyquinazoline]
0.01 to 0.1 |  | [2H]C([2H])([2H])Oc1cc2ncnc(Nc3ccc(F)c(Cl)c3)c2cc1OCCCN1CCC2(C1)CN(C)C(=O)O2 (centres unmarked) [Example 96, 4-(3′-chloro-4′-fluorophenylamino)-6-[3-(3-methyl-1-oxa-3,7-diazaspiro[4.4]nonane-2-ketone-7-yl)-propoxy]-7-deuterated methoxyquinazoline]
0.1 to 1 |  | [2H]C([2H])([2H])Oc1cc2ncnc(Nc3ccc(F)c(Cl)c3)c2cc1OCCCN1CC2(CNC(=O)O2)C1 [Example 97, 4-(3′-chloro-4′-fluorophenylamino)-6-[3-(5-oxa-2,7-diazaspiro[3.4]octane-6-ketone-2-yl)-propoxy]-7-deuterated methoxyquinazoline]
0.0001 to 0.01 |  | [2H]C([2H])([2H])Oc1cc2ncnc(Nc3ccc(F)c(Cl)c3)c2cc1OCCCN1CC2(C1)CN(C)C(=O)O2 [Example 98, 4-(3′-chloro-4′-fluorophenylamino)-6-[3-(7-methyl-5-oxa-2,7-diazaspiro[3.4]octane-6-ketone-2-yl)-propoxy]-7-deuterated methoxyquinazoline]
